Measurements as given in the Kinase Knowledgebase extract (Sharma et al. 2016).

System: MAPK14 (sprague-dawley rat)
Assay: IL-1 beta-induced P38 Phosphorylation
Conditions: astrocyte

Row | SMILES | IC50
1 | CC(C)(C)/[N+]([O-])=C/c1ccccc1 | 500 µM
2 | CC(=O)N[C@@H](CS)C(=O)O | 500 µM
